Experimental data reported in patent US20220016060A1, “USE OF SODIUM 2-(3-PENTYLPHENYL)ACETATE IN THE TREATMENT OF ALSTRÖM SYNDROME” (LIMINAL BIOSCIENCES LIMITED, priority 2018, published 2022).

Columns and labels:
ALMS patients [1] = experiment: Cardiac MRI of left ventricular function (LVESV, LVEDV); assay type: in vivo, human; conditions: for Change from Baseline LVEDV, Mean (SD) / Change from Baseline LVEDV, Median / Change from Baseline LVESV, Mean (SD) / Change from Baseline LVESV, Median: 800 mg daily oral
Procedure: The study was a Phase 2, single-centre, single-arm, open-label study of sodium 2-(3-pentylphenyl)acetate administered at a total daily oral dose of 800 mg for up to 72 weeks in subjects with ALMS was undertaken. The initial duration of the study was 24 weeks, and subjects were offered to enrol into an extension phase of 36 or 48 weeks. The schedule of study procedures for the enrolment, intervention, and assessments for participants is outlined in FIG. 1.
Sodium 2-(3-pentylphenyl)acetate was formulated in soft gelatine capsules containing 200 mg of Sodium 2-(3-pentylphenyl)acetate (amorphous powder) per capsule, polyethylene glycol 400, National Formulary (NF), hydrochloric acid (for pH adjustment), and water.
The effect of sodium 2-(3-pentylphenyl)acetate on heart histology in ALMS patients was assessed by measuring left ventricular function (LVF). LVF measurements permit to quantify how well the left ventricle is able to pump blood through the body with each heartbeat, and is also a prognostic factor in acute myocardial infarction.

ALMS patients [2] = experiment: Liver stiffness by transient elastography (FibroScan) and Metavir score, Phase 2 open-label study; assay type: in vivo, human; conditions: for Change from Baseline Transient Elastography, Mean (SD) / Change from Baseline Transient Elastography, Median: 800 mg daily oral
Procedure: The study was a Phase 2, single-centre, single-arm, open-label study of sodium 2-(3-pentylphenyl)acetate administered at a total daily oral dose of 800 mg for up to 72 weeks in subjects with ALMS was undertaken. The initial duration of the study was 24 weeks, and subjects were offered to enrol into an extension phase of 36 or 48 weeks. The schedule of study procedures for the enrolment, intervention, and assessments for participants is outlined in FIG. 1. Sodium 2-(3-pentylphenyl)acetate was formulated in soft gelatine capsules containing 200 mg of Sodium 2-(3-pentylphenyl)acetate (amorphous powder) per capsule, polyethylene glycol 400, National Formulary (NF), hydrochloric acid (for pH adjustment), and water. A total of 15 subjects participated in the study. […] Twelve (12) subjects met the eligibility criteria and received at least 1 dose of 800 mg sodium 2-(3-pentylphenyl)acetate, with all 12 subjects completing the initial 24-week treatment period as planned. A 36-week EP was added to the study protocol (Table 1). Ten (10) of the 12 subjects who completed the initial 24-week study drug treatment period continued in the EP, with 6 subjects having a break in treatment until the amendment was implemented before continuing treatment in the EP and 4 subjects continuing in the EP without any break in treatment. Two subjects (826-001-002 and 826-001-014) completed the study after the initial 24-week study drug treatment period. The effect of sodium 2-(3-pentylphenyl)acetate on liver histology in ALMS patients was first assessed by measuring liver stiffness. Liver stiffness is a physical parameter that reflects the health of the liver and is commonly used to diagnose liver diseases. Increased liver stiffness may be associated with hepatic dysfunction.

CCCCCc1cccc(CC(=O)[O-])c1.[Na+] [sodium 2-(3-pentylphenyl)acetate]
subjects in whom LVESV increased or did not change from baseline (ALMS patients [1]; 9/12 subjects): 75.0%
subjects in whom LVEDV increased from baseline (ALMS patients [1]; 10/12 subjects): 83.3%
Change from Baseline LVEDV, Mean (SD) (ALMS patients [1]; EP Week 36 (Week 60), N=4): 7.75 (3.948) mL
Change from Baseline LVEDV, Median (ALMS patients [1]; EP Week 36 (Week 60), N=4): 8.50 mL
Change from Baseline LVESV, Mean (SD) (ALMS patients [1]; EP Week 36 (Week 60), N=4): 3.75 (2.500) mL
Change from Baseline LVESV, Median (ALMS patients [1]; EP Week 36 (Week 60), N=4): 3.50 mL
Change from Baseline LVEDV, Mean (SD) (ALMS patients [1]; Week 24, N=10): 4.40 (16.574) mL
Change from Baseline LVEDV, Median (ALMS patients [1]; Week 24, N=10): 5.00 mL
Change from Baseline LVESV, Mean (SD) (ALMS patients [1]; Week 24, N=10): 0.70 (9.650) mL
Change from Baseline LVESV, Median (ALMS patients [1]; Week 24, N=10): 3.00 mL
change in LVESV from baseline (ALMS patients [1]; after 60 weeks of treatment): strong trend toward an increase
mean increase in LVEDV from baseline (ALMS patients [1]; after 60 weeks of treatment, p=0.0294): 7.75 mL
LVESV relative to normal range (ALMS patients [1]; subject 826-001-015): Normalization of LVESV after treatment
LVEDV and LVESV relative to normal range (ALMS patients [1]; subjects 826-001-002 and 826-001-004, below normal at baseline): within the normal range after the treatment period
subjects in whom liver stiffness decreased from baseline (ALMS patients [2]; 8/11 subjects, after treatment with 800 mg): 72.3%
Change from Baseline Transient Elastography, Mean (SD) (ALMS patients [2]; EP Week 12 (Week 36), N=10): −1.41 (2.585) kPa
Change from Baseline Transient Elastography, Median (ALMS patients [2]; EP Week 12 (Week 36), N=10): −1.75 kPa
Change from Baseline Transient Elastography, Mean (SD) (ALMS patients [2]; EP Week 24 (Week 48), N=10): −1.49 (2.335) kPa
Change from Baseline Transient Elastography, Median (ALMS patients [2]; EP Week 24 (Week 48), N=10): −1.45 kPa
Change from Baseline Transient Elastography, Mean (SD) (ALMS patients [2]; EP Week 36 (Week 60), N=9): −2.59 (2.703) kPa
Change from Baseline Transient Elastography, Median (ALMS patients [2]; EP Week 36 (Week 60), N=9): −2.30 kPa
largest increase in liver stiffness from baseline (ALMS patients [2]; Subject 826-001-013, 30-day break in treatment): 1.8 kPa
Metavir score at Week 60 (ALMS patients [2]; Subject 826-001-015, baseline F4): F0/1 (Metavir score F0-F1: absence or mild fibrosis (2.5-7.0 kPa on FibroScan ®))
number of subjects with at least a 1-grade reduction in liver fibrosis (Metavir scoring system) (ALMS patients [2]; Subjects 826-001-001, -004, -012, -015): 4 subjects
Change from Baseline Transient Elastography, Mean (SD) (ALMS patients [2]; Week 12, N=11): −1.19 (2.160) kPa
Change from Baseline Transient Elastography, Median (ALMS patients [2]; Week 12, N=11): −1.50 kPa
Change from Baseline Transient Elastography, Mean (SD) (ALMS patients [2]; Week 24, N=11): −1.01 (2.308) kPa
Change from Baseline Transient Elastography, Median (ALMS patients [2]; Week 24, N=11): −0.70 kPa
decrease in liver stiffness from baseline (mean) (ALMS patients [2]; after 60 weeks of treatment, p=0.0207): 2.59 kPa
